From patent US11505536B2, “Dihydroorotate dehydrogenase inhibitors” (Janssen Biotech, Inc., priority 2019, dated 2022)

Key:
[1] = target: human DHODH (Homo sapiens (Human), UniProt Q02127); test: DHODH Enzymatic Assay; type: biochemical; details: purified human DHODH, DCIP absorbance, end-point mode; read-out: hDHODH IC50
In short: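 Purified human DHODH in […] HEPES pH 7.5, 150 mM NaCl, 0.5 mM EDTA, 0.1% Triton X-100; reaction started with substrate mix of 20 mM DHO, 5 mM CoQ6, 1 mM DCIP. End-point read as DCIP reduction (absorbance ~600 nm) after brequinar quench.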

[2] = system: MOLM-13 cells (human acute myeloid leukemia cells); test: MOLM-13 Cellular Assay; type: cell-based; details: Homo sapiens, MOLM-13, 72 h, 72 hours exposure, cell viability by CellTiter-Glo
In short: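 MOLM-13 AML cells, seeded at 5,000/well in RPMI 1640 with 10% FBS, were treated with compounds right after seeding for 72 h at 37 °C, 5% CO2. Viability read by CellTiter-Glo luminescence.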

Chain of human DHODH (Q02127 whole entry): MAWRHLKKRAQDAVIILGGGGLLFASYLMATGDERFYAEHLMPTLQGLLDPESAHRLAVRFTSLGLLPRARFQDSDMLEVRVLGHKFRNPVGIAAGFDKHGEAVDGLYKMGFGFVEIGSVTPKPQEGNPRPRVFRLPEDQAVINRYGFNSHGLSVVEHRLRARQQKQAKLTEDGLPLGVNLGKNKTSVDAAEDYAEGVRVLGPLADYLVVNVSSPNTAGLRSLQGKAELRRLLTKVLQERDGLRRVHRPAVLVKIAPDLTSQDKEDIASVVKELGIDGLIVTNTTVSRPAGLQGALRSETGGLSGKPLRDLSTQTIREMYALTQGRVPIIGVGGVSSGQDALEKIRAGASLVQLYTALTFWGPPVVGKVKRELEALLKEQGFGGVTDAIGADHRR

IC50 [1] [nM] | IC50 [2] [nM] | SMILES
29.2 | 50 | CCn1c(CO)nn(-c2cc3c(C(C)C)cn(-c4ccnc(OC)c4C)c(=O)c3cc2F)c1=O [Example 129, 6-(4-Ethyl-3-(hydroxymethyl)-5-oxo-4,5-dihydro-1H-1,2,4-triazol-1-yl)-7-fluoro-4-isopropyl-2-(2-methoxy-3-methylpyridin-4-yl)isoquinolin-1(2H)-one]
0.885 | 0.9 | CCn1c(CO)nn(-c2nc3c(C(C)C)cn(-c4ccccc4OC)c(=O)c3cc2F)c1=O [Example 130, 2-(4-Ethyl-3-(hydroxymethyl)-5-oxo-4,5-dihydro-1H-1,2,4-triazol-1-yl)-3-fluoro-8-isopropyl-6-(2-methoxyphenyl)-1,6-naphthyridin-5(6H)-one]
33.7 | 50 | CCn1c(CO)nn(-c2cc3c(C(C)C)cn(-c4csnc4C)c(=O)c3cc2F)c1=O [Example 131, 6-(4-Ethyl-3-(hydroxymethyl)-5-oxo-4,5-dihydro-1H-1,2,4-triazol-1-yl)-7-fluoro-4-isopropyl-2-(3-methylisothiazol-4-yl)isoquinolin-1(2H)-one]
3.72 | 4 | CCn1c(CO)nn(-c2cc3c(C(C)C)cn(-c4cnsc4C)c(=O)c3cc2F)c1=O [Example 132, 6-(4-Ethyl-3-(hydroxymethyl)-5-oxo-4,5-dihydro-1H-1,2,4-triazol-1-yl)-7-fluoro-4-isopropyl-2-(5-methylisothiazol-4-yl)isoquinolin-1(2H)-one]
6.93 | 50 | CCn1c(CO)nn(-c2cc3c(C(C)C)cn(-c4cc(C)ncc4C)c(=O)c3cc2F)c1=O [Example 135, 2-(2,5-Dimethylpyridin-4-yl)-6-(4-ethyl-3-(hydroxymethyl)-5-oxo-4,5-dihydro-1H-1,2,4-triazol-1-yl)-7-fluoro-4-isopropylisoquinolin-1(2H)-one]
4.79 | 8 | CCn1c(CO)nn(-c2cc3c(C(C)C)cn(-c4cnccc4C)c(=O)c3cc2F)c1=O [Example 136, 6-(4-Ethyl-3-(hydroxymethyl)-5-oxo-4,5-dihydro-1H-1,2,4-triazol-1-yl)-7-fluoro-4-isopropyl-2-(4-methylpyridin-3-yl)isoquinolin-1(2H)-one]
8.08 | 8 | CCn1c(CO)nn(-c2cc3c(C(C)C)cn(-c4ccncc4C)c(=O)c3cc2F)c1=O [Example 137, 6-(4-Ethyl-3-(hydroxymethyl)-5-oxo-4,5-dihydro-1H-1,2,4-triazol-1-yl)-7-fluoro-4-isopropyl-2-(3-methylpyridin-4-yl)isoquinolin-1(2H)-one]
80.4 | > 100 | CCn1c(CO)nn(-c2cc3c(C(C)C)cn(-c4cccnc4C)c(=O)c3cc2F)c1=O [Example 138, 6-(4-Ethyl-3-(hydroxymethyl)-5-oxo-4,5-dihydro-1H-1,2,4-triazol-1-yl)-7-fluoro-4-isopropyl-2-(2-methylpyridin-3-yl)isoquinolin-1(2H)-one]
35.4 | > 100 | CCn1c(CO)nn(-c2cc3c(C(C)C)cn(-c4cc(O)ncc4C)c(=O)c3cc2F)c1=O [Example 139, 6-(4-Ethyl-3-(hydroxymethyl)-5-oxo-4,5-dihydro-1H-1,2,4-triazol-1-yl)-7-fluoro-2-(2-hydroxy-5-methylpyridin-4-yl)-4-isopropylisoquinolin-1(2H)-one]
1.13 | 1 | CCn1c(CO)nn(-c2nc3c(C(C)C)cn(-c4ccccc4C(F)F)c(=O)c3cc2F)c1=O [Example 140]
10.5 | > 100 | CCn1c(CO)nn(-c2cc3c(C(C)C)cn(-c4ccnc(O)c4C)c(=O)c3cc2F)c1=O [Example 141, 6-(4-Ethyl-3-(hydroxymethyl)-5-oxo-4,5-dihydro-1H-1,2,4-triazol-1-yl)-7-fluoro-2-(2-hydroxy-3-methylpyridin-4-yl)-4-isopropylisoquinolin-1(2H)-one]
0.623 | 0.4 | [2H]C([2H])([2H])c1ccccc1-n1cc(C(C)C)c2nc(-n3nc(CO)n(CC)c3=O)c(F)cc2c1=O [Example 142, 2-(4-Ethyl-3-(hydroxymethyl)-5-oxo-4,5-dihydro-1H-1,2,4-triazol-1-yl)-3-fluoro-8-isopropyl-6-(o-D3-tolyl)-1,6-naphthyridin-5(6H)-one]
